# Patent publication US20140018372A1, “CRYSTALLINE FORM OF A INDOLINONE DERIVATIVE AND ITS USE” (BOEHRINGER INGELHEIM INTERNATIONAL GMBH, priority 2012, published 2014)
# Entries after “also recorded” stand apart in the source; their conditions may differ.
# Key:
# [1] = Water sorption isotherms (DVS); format: physicochemical; settings: sorption isotherms at 25° C.
# Method: To study the hygroscopical behaviour of this material, sorption isotherms are registered, e.g. on a DVS-1 water sorption monitor from Surface Measurement Systems. Adsorption and desorption isotherms are performed at 25° C. with 10% r.h. step intervals ranging from 10% r.h. up to 90% r.h.
# [2] = Solid state chemical stability; format: physicochemical
# Method: The crystalline free base form of 3-{3-[1-(4-Dimethylaminomethyl-phenylamino)-1-phenyl-meth-(Z)-ylidene]-2-oxo-2,3-dihydro-1H-indol-6-yl}-propynoic acid ethylamide according to this invention has further added properties, such as e.g. no sensitivity towards heat, humidity and photolysis in solid state (solid state chemical stability, e.g. 3d @ 70° C. and >90% r.h.: <1% decomposition; 3d @ 105° C.: <1.5% decomposition; 24 h under UV-radiation @ 250 W/m^2: <1.5% decomposition).
# [3] = test system: phospho-histone H3 in NCI-H460 cells; assay: Analysis of histone H3 phosphorylation in NCI-H460 cells (Cellomics); format: cell-based; settings: Homo sapiens, synchronized H460 NSCLC cells, 1 h treatment, molecular phosphorylation assay, read-out: EC50 for reduction of phospho-histone H3
# Excerpt: This CDK1 inhibitor arrests cells in G2. […] The final DMSO concentration was 0.1%.
# [4] = test system: H460 cells; assay: Polyploidy by DNA content analyses (Cellomics ArrayScan); format: cell-based, human; settings: 7 nM, 42 h exposure
# [5] = test system: phospho-ERK in SK-MEL-28 cells; assay: Fast Active Cell-Based ELISA (FACE) SK-MEL-28 p-ERK; settings: Homo sapiens, SK-MEL 28 melanoma cells, read-out: EC50 for reduction of phospho-ERK
# Excerpt: Fast Active Cell-Based ELISA (FACE) SK-MEL-28 p-ERK:
# The supernatant is removed.
# [6] = Solution state stability; format: physicochemical
# Method: In solution state, the compound of formula (I) according to the invention show no or only minor sensitivity towards hydrolysis at pH 2.2-10 (solution state stability, e.g. 0.1M HCl, 8 h @ 37° C.: <1% decomposition; Mc Ilvaine buffer 7.4, 3d @ 60° C.: <1,5% decomposition).
# [7] = test system: tumors derived from melanoma cell line G361^V600V/E; assay: Human melanoma xenograft G361 in nude mice; format: in vivo; settings: oral qd, Compound A 10 mg/kg, vemurafenib 120 mg/kg; for TGI@d23 [%]: day 23; for CR@d30 [x/7] / PR@d30 [x/7]: day 30
# Method: Athymic female BomTac:NMRI-Foxn1^nu mice about six weeks of age are allowed to adjust to ambient conditions for at least five days before they are used for experiments. The animals are housed under standardized conditions in groups of 7-10 in Macrolon® type III cages. Standardized diet (PROVIMI KLIBA) and autoclaved tap water are provided ad libitum. To establish subcutaneous tumors, cells are harvested by trypsinization, centrifuged, washed and resuspended in ice-cold PBS+5% FCS. 100 μL of cell suspension containing, depending on cell type, about 10^6 to 10^7 cells are injected subcutaneously into the right flank of a nude mouse (one site per mouse). Mice are randomly distributed between the treatment and the vehicle control group (12 days after cell injection) when tumors are well established and have reached volumes of 40-120 mm^3
# The tumor diameter is measured three times a week (Monday, Wednesday and Friday) with a caliper. The volume of each tumor (in mm^3) is calculated according to the formula “tumor volume=length×diameter^2×π/6”. To monitor side effects of treatment, mice are inspected daily for abnormalities and body weight is determined three times a week (e.g. Monday, Wednesday and Friday). Animals are sacrificed at the end of the study about ten weeks after start of treatment. Animals with necrotic tumors or tumor sizes exceeding 1500 mm^3 are sacrificed early during the studies for ethical reasons.
# For a quick overview of possible treatment effects the median of the tumor volume of each treatment group T is related to the median of the tumor volume of control C. Tumor growth inhibition (TGI) from day 1 until day d is calculated as: […]
# wherein • C1 and T1 represent the median tumor volumes in the control and treatment groups at start of the experiment at day 1 and • Cd and Td represent the median tumor volumes in the control and treatment groups at end of the experiment at day d.
# Mice with tumors derived from melanoma cell line G361^V600V/E are treated orally with the B-Raf inhibitor vemurafenib qd at doses of 120 mg/kg or with 3-{3-[1-(4-Dimethylaminomethyl-phenylamino)-1-phenyl-meth-(Z)-ylidene]-2-oxo-2,3-dihydro-1H-indol-6-yl}-propynoic acid ethylamide (Compound A) qd at doses of 10 mg/kg or with the vehicle only. In addition, mice are treated orally with B-Raf inhibitor vemurafenib qd at doses of 120 mg/kg in combination with Compound A qd at doses of 10 mg/kg.
compound,measurement,setting,value
"CCNC(=O)C#Cc1ccc2c(c1)NC(=O)/C2=C(\Nc1ccc(CN(C)C)cc1)c1ccccc1 [3-{3-[1-(4-Dimethylaminomethyl-phenylamino)-1-phenyl-meth-(Z)-ylidene]-2-oxo-2,3-dihydro-1H-indol-6-yl}-propynoic acid ethylamide]",hygroscopical behaviour,[1],not hygroscopic; also recorded: non-hygroscopic
same,"decomposition, solid state",[2]; 24 h under UV-radiation @ 250 W/m^2,< 1.5%
same,"decomposition, solid state",[2]; 3d @ 70° C. and >90% r.h.,< 1%
same,"decomposition, solid state",[2]; 3d @ 105° C.,< 1.5%
"CCNC(=O)C#Cc1ccc2c(c1)NC(=O)/C2=C(\Nc1ccc(CN(C)C)cc1)c1ccccc1 [Compound A, 3-{3-[1-(4-Dimethylaminomethyl-phenylamino)-1-phenyl-meth-(Z)-ylidene]-2-oxo-2,3-dihydro-1H-indol-6-yl}-propynoic acid ethylamide]",EC50,[3],44 nM
same,polyploid cells,[4],81%
same,EC50,[5],59 nM
same,"decomposition, solution state","[6]; 0.1M HCl, 8 h @ 37° C.",< 1%
same,"decomposition, solution state","[6]; Mc Ilvaine buffer 7.4, 3d @ 60° C.","< 1,5%"
same,mortality [x/7],[7],1 x/7
same,TGI@d23 [%],[7],45%
same,CR@d30 [x/7],[7],0 x/7
same,PR@d30 [x/7],[7],0 x/7
"CCCS(=O)(=O)Nc1ccc(F)c(C(=O)c2c[nH]c3ncc(-c4ccc(Cl)cc4)cc23)c1F [vemurafenib, reference compound]",mortality [x/7],[7],0 x/7
same,TGI@d23 [%],[7],44%
same,CR@d30 [x/7],[7],0 x/7
same,PR@d30 [x/7],[7],0 x/7
